US6613903B2, “Modulators of protein tyrosine phosphatases (PTPases)” (Novo Nordisk A/S, priority 2000, dated 2003)

Biological target: T1, truncated form of PTP1 B (corresponding to the first 321 amino acids) (Homo sapiens, UniProt P18031)
T1 construct: truncated form of PTP1 B (corresponding to the first 321 amino acids); made in house; host or cells: E. coli
T1 sequence (P18031 1-321): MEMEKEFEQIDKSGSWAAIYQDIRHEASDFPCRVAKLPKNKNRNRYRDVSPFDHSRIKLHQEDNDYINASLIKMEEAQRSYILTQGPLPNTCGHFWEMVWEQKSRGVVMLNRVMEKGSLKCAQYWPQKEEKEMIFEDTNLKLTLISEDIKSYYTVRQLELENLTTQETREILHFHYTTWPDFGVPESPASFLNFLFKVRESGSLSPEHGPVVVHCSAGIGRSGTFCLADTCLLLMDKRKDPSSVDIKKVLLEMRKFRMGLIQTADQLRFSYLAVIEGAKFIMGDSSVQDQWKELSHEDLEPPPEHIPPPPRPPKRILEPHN
Test: Inhibition of PTP1B, p-nitrophenyl phosphate as substrate, enzyme kinetics
Type: biochemical
Conditions: truncated PTP1B expressed in E. coli; substrate p-nitrophenyl phosphate 0.16 to 10 mM; sodium acetate pH 5.5; 25° C. for 60 minutes; absorbance at 405 nm
Protocol: The compounds are evaluated for biological activity with a truncated form of PTP1 B (corresponding to the first 321 amino acids), which was expressed in E. coli and purified to apparent homogeneity using published procedures well-known to those skilled in the art. The enzyme reactions are carried out using standard conditions essentially as described by Burke et al. (Biochemistry 35; 15989-15996 (1996)). The assay conditions are as follows. Appropriate concentrations of the compounds of the invention are added to the reaction mixtures containing different concentrations of the substrate, p-nitrophenyl phosphate (range: 0.16 to 10 mM—final assay concentration). The buffer used was 100 mM sodium acetate pH 5.5, 50 mM sodium chloride, 0.1% (w/v) bovine serum albumin and 5 mM dithiothreitol (total volume […]). The reaction was started by addition of the enzyme and carried out in microtiter plates at 25° C. for 60 minutes. The reactions are stopped by addition of NaOH. The enzyme activity was determined by measurement of the absorbance at 405 nm with appropriate corrections for absorbance at 405 nm of the compounds and p-nitrophenyl phosphate. The data are analyzed using nonlinear regression fit to classical Michaelis Menten enzyme kinetic models. Inhibition is expressed as Ki values in μM.

Ki [nM]	Compound
31	O=C(NC[C@@H]1NCCc2c1sc(NC(=O)C(=O)O)c2C(=O)O)Nc1ccc(Oc2ccccc2)cc1 [Example 29, 2-(Oxalyl-amino)-7-(S)-(3-(4-phenoxy-phenyl)ureidomethyl)-4,5,6,7-tetrahydro-thieno[2,3-c]pyridine-3-carboxylic acid]
2100	O=C(O)C(=O)Nc1sc2c(c1C(=O)O)CCN[C@@H]2CNC(=O)c1cn(Cc2ccccc2)c2ccccc12 [Example 27, 7-(R)-(((1-Benzyl-1H-indole-3-carbonyl)amino)methyl)-2-(oxalyl-amino)-4,5,6,7-tetrahydro-thieno[2,3-c]pyridine-3-carboxylic acid]
31	O=C(O)C(=O)Nc1sc2c(c1C(=O)O)CCN[C@H]2CNC(=O)c1cc2ccccc2[nH]1 [Example 37, 7-(S)-(((1H-Indole-2-carbonyl)amino)methyl)-2-(oxalyl-amino)-4,5,6,7-tetrahydro-thieno[2,3-c]pyridine-3-carboxylic acid]
640	O=C(O)C(=O)Nc1sc2c(c1C(=O)O)CCN[C@H]2CNC(=O)c1ccc2nc[nH]c2c1 [Example 24, 7-(S)-(((3H-Benzoimidazole-5-carbonyl)amino)methyl)-2-(oxalyl-amino)-4,5,6,7-tetrahydro-thieno[2,3-c]pyridine-3-carboxylic acid]
490	O=C(O)C(=O)Nc1sc2c(c1C(=O)O)CCNC2CNC(=O)c1ccccc1 (centres unmarked) [Example 1, 7-(Benzoylamino-methyl)-2-(oxalyl-amino)-4,5,6,7-tetrahydro-thieno[2,3-c]pyridine-3-carboxylic acid]
140	O=C(O)C(=O)Nc1sc2c(c1C(=O)O)CCNC2CNC(=O)c1ccc(Cc2ccccc2)cc1 (centres unmarked) [Example 11, 7-((4-Benzyl-benzoylamino)methyl)-2-(oxalyl-amino)-4,5,6,7-tetrahydro-thieno[2,3-c]pyridine-3-carboxylic acid]
120	O=C(O)C(=O)Nc1sc2c(c1C(=O)O)CCNC2CNC(=O)c1cccc2ccccc12 (centres unmarked) [Example 12, 7-(((Naphthalene-1-carbonyl)amino)methyl)-2-(oxalyl-amino)-4,5,6,7-tetrahydro-thieno[2,3-c]pyridine-3-carboxylic acid]
70	O=C(O)C(=O)Nc1sc2c(c1C(=O)O)CCNC2CNC(=O)c1c(O)ccc2ccccc12 (centres unmarked) [Example 14, 7-(((2-Hydroxy-naphthalene-1-carbonyl)amino)methyl)-2-(oxalyl-amino)-4,5,6,7-tetrahydro-thieno[2,3-c]pyridine-3-carboxylic acid]
58	O=C(O)C(=O)Nc1sc2c(c1C(=O)O)CCN[C@H]2CNCc1ccc(Oc2ccccc2)cc1 [Example 28, 2-(Oxalyl-amino)-7-(S)-((4-phenoxy-benzylamino)methyl)-4,5,6,7-tetrahydro-thieno[2,3-c]pyridine-3-carboxylic acid]
62	O=C(CCc1ccc(-c2ccccc2)cc1)NCC1NCCc2c1sc(NC(=O)C(=O)O)c2C(=O)O (centres unmarked) [Example 9, 7-((3-Biphenyl-4-yl-propionylamino)methyl)-2-(oxalyl-amino)-4,5,6,7-tetrahydro-thieno[2,3-c]-pyridine-3-carboxylic acid]
70	O=C(CCc1ccc2ccccc2c1)NCC1NCCc2c1sc(NC(=O)C(=O)O)c2C(=O)O (centres unmarked) [Example 13, 7-((3-Naphthalen-2-yl-propionylamino)methyl)-2-(oxalyl-amino)-4,5,6,7-tetrahydro-thieno[2,3-c]pyridine-3-carboxylic acid]
70	O=C(O)C(=O)Nc1sc2c(c1C(=O)O)CCNC2CNC(=O)c1cn(Cc2ccccc2)c2ccccc12 (centres unmarked) [Example 30, 7-(((1-Benzyl-1H-indole-3-carbonyl)amino)methyl)-2-(oxalyl-amino)-4,5,6,7-tetrahydro-thieno[2,3-c]pyridine-3-carboxylic acid]

The remaining lines, values behind:

Compound	Ki [nM]
CCOC(=O)c1c(NC(=O)C(=O)OCC(C)(C)C)sc2c1CCNC2CNC(=O)c1cc2cc(O)ccc2[nH]1 (centres unmarked) [Example 40, 2-((2,2-Dimethyl-propoxyoxalyl)amino)-7-(((5-hydroxy-1H-indole-2-carbonyl)-amino)methyl)-4,5,6,7-tetrahydro-thieno[2,3-c]pyridine-3-carboxylic acid ethyl ester]	1300
CCOC(=O)C(=O)Nc1sc2c(c1C(=O)O)CCNC2CNC(=O)c1cc2cc(O)ccc2[nH]1 (centres unmarked) [Example 38, 2-(Ethoxyoxalyl-amino)-7-(((5-hydroxy-1H-indole-2-carbonyl)amino)methyl)-4,5,6,7-tetrahydro-thieno[2,3-c]pyridine-3-carboxylic acid]	63
CC(=O)OCOC(=O)Oc1ccc2[nH]c(C(=O)NC[C@H]3c4sc(NC(=O)C(=O)O)c(C(=O)O)c4CCN3C(=O)OCOC(C)=O)cc2c1 [Example 35, 7-(S)-(((5-Acetoxymethoxycarbonyloxy-1H-indole-2-carbonyl)amino)methyl)-2-(oxalyl-amino)-4,7-dihydro-5H-thieno[2,3-c]pyridine-3,6-dicarboxylic acid 6-acetoxymethyl ester]	32
O=C(O)C(=O)Nc1sc2c(c1C(=O)O)CCNC2CNC(=O)c1ccc(NC(=O)c2ccccc2)cc1 (centres unmarked) [Example 6, 7-((4-Benzoylamino-benzoylamino)methyl)-2-(oxalyl-amino)-4,5,6,7-tetrahydro-thieno[2,3-c]pyridine-3-carboxylic acid]	330
O=C(O)C(=O)Nc1sc2c(c1C(=O)O)CCN[C@H]2CNC(=O)c1ccc(-c2cccc(-c3ccccc3)c2)cc1 [Example 36]	42
CC(=O)Nc1ccc(S(=O)(=O)NC[C@@H]2NCCc3c2sc(NC(=O)C(=O)O)c3C(=O)O)cc1 [Example 22, 7-(S)-((4-Acetylamino-benzenesulfonylamino)methyl)-2-(oxalyl-amino)-4,5,6,7-tetrahydro-thieno[2,3-c]pyridine-3-carboxylic acid]	91
CCOc1cccc2cc(C(=O)NC[C@@H]3NCCc4c3sc(NC(=O)C(=O)O)c4C(=O)O)oc12 [Example 20, 7-(S)-(((7-Ethoxy-benzofuran-2-carbonyl)amino)methyl)-2-(oxalyl-amino)-4,5,6,7-tetrahydro-thieno[2,3-c]pyridine-3-carboxylic acid]	110
O=C(O)C(=O)Nc1sc2c(c1C(=O)O)CCN[C@H]2CNC(=O)c1cc2cc(F)ccc2[nH]1 [Example 33, 7-(S)-(((5-Fluoro-1H-indole-2-carbonyl)amino)methyl)-2-(oxalyl-amino)-4,5,6,7-tetrahydro-thieno[2,3-c]pyridine-3-carboxylic acid]	18
O=C(O)C(=O)Nc1sc2c(c1C(=O)O)CCN[C@H]2CNC(=O)c1cc2cc(O)ccc2[nH]1 [Example 25, 7-(S)-(((5-Hydroxy-1H-indole-2-carbonyl)amino)methyl)-2-(oxalyl-amino)-4,5,6,7-tetrahydro-thieno[2,3-c]pyridine-3-carboxylic acid]	3200
CCOC(=O)c1c(NC(=O)C(=O)O)sc2c1CCNC2CNC(=O)c1cc2cc(O)ccc2[nH]1 (centres unmarked) [Example 41, 7-(((5-Hydroxy-1H-indole-2-carbonyl)amino)methyl)-2-(oxalyl-amino)-4,7-dihydro-5H-thieno[2,3-c]pyridine-3-carboxylic acid ethyl ester]	900
O=C(O)C(=O)Nc1sc2c(c1C(=O)O)CCN[C@@H]2CNC(=O)c1cc2cc(O)ccc2[nH]1 [Example 26, 7-(R)-(((5-Hydroxy-1H-indole-2-carbonyl)amino)methyl)-2-(oxalyl-amino)-4,5,6,7-tetrahydro-thieno[2,3-c]pyridine-3-carboxylic acid]	2600
CCOC(=O)N1CCc2c(sc(NC(=O)C(=O)O)c2C(=O)O)C1CNC(=O)c1cc2cc(O)ccc2[nH]1 (centres unmarked) [Example 42, 7-(((5-Hydroxy-1H-indole-2-carbonyl)amino)methyl)-2-(oxalyl-amino)-4,7-dihydro-5H-thieno[2,3-c]pyridine-3,6-dicarboxylic acid 6-ethyl ester]	120
CC(C)(N)CCCC(=O)NCC1NCCc2c1sc(NC(=O)C(=O)O)c2C(=O)O (centres unmarked) [Example 32, 7-((5-Amino-5-methyl-hexanoylamino)methyl)-2-(oxalyl-amino)-4,5,6,7-tetrahydro-thieno[2,3-c]pyridine-3-carboxylic acid]	78
CC(=O)NCC1NCCc2c1sc(NC(=O)C(=O)O)c2C(=O)O (centres unmarked) [Example 31, 7-(Acetylamino-methyl)-2-(oxalyl-amino)-4,5,6,7-tetrahydro-thieno[2,3-c]pyridine-3-carboxylic acid]	1100
